≈ marks a conversion by molar mass, not a printed value. Read-outs that look alike come from different tables or passages of the source.

One data set concerns β-hematin (βH) formation. Briefly: NP-40 mediated cell-free β-hematin assay. Particulars: read-out: β-hematin IC50.
The next data set deals with PvPI4K (Plasmodium vivax, UniProt A5KB26). Briefly: biochemical. The following applies: purified recombinant PvPI4K, 10 μM ATP, ADP-Glo; mean of N ≥ 2; read-out: PvPI4K IC50 ± SD. On the technique in general: ADP-Glo first removes unused ATP, then detects ADP through luciferase.
Chain of PvPI4K (A5KB26 entry or part of it): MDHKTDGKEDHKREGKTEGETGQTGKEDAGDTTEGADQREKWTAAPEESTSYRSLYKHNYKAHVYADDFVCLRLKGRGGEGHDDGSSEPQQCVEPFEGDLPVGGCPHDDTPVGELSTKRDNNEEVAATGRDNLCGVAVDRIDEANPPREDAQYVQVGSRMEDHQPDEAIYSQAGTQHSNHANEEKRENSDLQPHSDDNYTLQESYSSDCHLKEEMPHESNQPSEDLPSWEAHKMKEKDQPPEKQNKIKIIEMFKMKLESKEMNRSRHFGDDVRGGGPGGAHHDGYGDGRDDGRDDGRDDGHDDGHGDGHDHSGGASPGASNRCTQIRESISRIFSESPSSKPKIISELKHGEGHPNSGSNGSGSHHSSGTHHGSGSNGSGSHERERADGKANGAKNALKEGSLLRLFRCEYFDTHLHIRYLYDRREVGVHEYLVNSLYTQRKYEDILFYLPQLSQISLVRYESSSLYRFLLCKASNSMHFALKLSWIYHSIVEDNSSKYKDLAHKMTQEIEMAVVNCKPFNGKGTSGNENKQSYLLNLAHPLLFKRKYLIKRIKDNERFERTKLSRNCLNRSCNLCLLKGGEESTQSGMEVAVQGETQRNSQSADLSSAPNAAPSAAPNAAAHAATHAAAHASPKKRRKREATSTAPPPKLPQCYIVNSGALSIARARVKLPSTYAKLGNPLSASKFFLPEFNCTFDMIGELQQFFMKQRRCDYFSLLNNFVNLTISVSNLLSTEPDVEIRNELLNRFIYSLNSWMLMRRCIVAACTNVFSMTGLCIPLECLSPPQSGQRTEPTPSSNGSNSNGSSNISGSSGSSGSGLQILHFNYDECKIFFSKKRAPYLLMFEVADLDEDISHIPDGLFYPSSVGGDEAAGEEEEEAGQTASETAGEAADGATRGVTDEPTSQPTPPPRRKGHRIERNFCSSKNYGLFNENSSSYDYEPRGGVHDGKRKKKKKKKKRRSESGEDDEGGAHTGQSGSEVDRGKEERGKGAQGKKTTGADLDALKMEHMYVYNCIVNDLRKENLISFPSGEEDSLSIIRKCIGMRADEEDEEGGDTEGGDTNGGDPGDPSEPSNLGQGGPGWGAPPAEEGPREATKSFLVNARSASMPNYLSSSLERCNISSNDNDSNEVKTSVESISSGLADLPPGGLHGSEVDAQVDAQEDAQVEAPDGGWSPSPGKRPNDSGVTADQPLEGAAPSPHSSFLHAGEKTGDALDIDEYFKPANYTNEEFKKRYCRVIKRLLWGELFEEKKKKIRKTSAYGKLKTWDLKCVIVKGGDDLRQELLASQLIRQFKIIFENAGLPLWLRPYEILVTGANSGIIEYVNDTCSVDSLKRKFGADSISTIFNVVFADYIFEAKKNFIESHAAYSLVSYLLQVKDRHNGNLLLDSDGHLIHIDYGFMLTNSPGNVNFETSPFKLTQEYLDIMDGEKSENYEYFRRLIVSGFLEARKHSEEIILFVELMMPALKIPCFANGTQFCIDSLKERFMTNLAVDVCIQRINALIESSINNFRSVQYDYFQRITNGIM
Data set [1] concerns Chinese Hamster Ovary (CHO) cell line. Briefly: cells. The format is cell-based. The following applies: Cricetulus griseus, CHO; MTT assay over 48h; read-out: CHO IC50. On the technique in general: Tetrazolium dyes change colour on reduction, which living cells bring about.
The nature of data set [2]: Solubility, miniaturized shake flask method. The following applies: aqueous solution.
Data set [3] deals with P. falciparum NF54 strain. Briefly: Antiplasmodial activity, parasite lactate dehydrogenase assay, NF54. Particulars: Plasmodium falciparum, NF54, 72 h, parasite lactate dehydrogenase assay over 72 h; read-out: Pf IC50 ± SD NF54. It counts as cell-based, Plasmodium falciparum.
Data set [4] deals with P. falciparum PI4K conditional knockdown line. Briefly: microbe, parasite or virus in culture. The format is cell-based, Plasmodium falciparum.
The mark [5] stands for this setting: cell-free NP-40 detergent-mediated assay, n = 2.

The term IC50 denotes the concentration that inhibits the measured activity by half. `CCN(CC)CCCC(C)Nc1ccnc2cc(Cl)ccc12` (centres unmarked) [Chloroquine, reference compound]: the IC50 in the data set on β-hematin (βH) formation came out at 21000 ± 2100 nM.
A word on the solubility: it is the concentration that dissolves in the medium under given conditions. Higher therefore signals a readily soluble substance. With `CS(=O)(=O)c1cccc(-c2ccc3nccc(NC4CCCNC4)c3n2)c1` (centres unmarked) [Compound 8, 6-(3-Methylsulfonylphenyl)-N-piperidin-3-yl-1,5-naphthyridin-4-amine], the IC50 at PvPI4K was 151 ± 72 nM; in data set [1], 33300 nM; in data set [3] it was 200 ± 2 nM; in the data set with β-hematin (βH) formation (setting [5]), above 500000 nM. The molecule further came in with a solubility at 20 h in data set [2] of 195 µM (≈ 74.6 µg/mL).
For `CS(=O)(=O)c1cccc(-c2ccc3nccc(N4CC[C@@H](N)C4)c3n2)c1` [Compound 9, (3R)-1-[6-(3-Methylsulfonylphenyl)-1,5-naphthyridin-4-yl]pyrrolidin-3-amine], the IC50 turned out to be 199 ± 37 nM on PvPI4K, 22000 nM in data set [1] and 100 ± 5 nM in data set [3]. Moreover, in data set [2], the concentration in solution (solubility at 20 h) came to 200 µM (≈ 73.7 µg/mL).
Turning to `CC(=O)N[C@@H]1CCN(c2ccnc3ccc(-c4cccc(S(C)(=O)=O)c4)nc23)C1` [Compound 10, N-[(3R)-1-[6-(3-Methylsulfonylphenyl)-1,5-naphthyridin-4-yl]pyrrolidin-3-yl]acetamide], the IC50 on PvPI4K worked out at 76 ± 6 nM; in data set [3], 890 ± 57 nM. The molecule also yielded a solubility at 20 h in data set [2] of 185 µM (≈ 75.9 µg/mL).
In the case of `CS(=O)(=O)c1cccc(-c2ccc3nccc(N4CC[C@@H](NC(N)=O)C4)c3n2)c1` [Compound 11, [(3R)-1-[6-(3-Methylsulfonylphenyl)-1,5-naphthyridin-4-yl]pyrrolidin-3-yl]urea], the figures for the IC50 (at PvPI4K; in data set [3]) were 39 ± 7 nM and 630 ± 133 nM, respectively.
As to `FC(F)(F)c1ccc(-c2ccc3nccc(NC4CCCNC4)c3n2)cn1` (centres unmarked) [Compound 12, N-Piperidin-3-yl-6-[6-(trifluoromethyl)pyridin-3-yl]-1,5-naphthyridin-4-amine], the IC50 came to 276 ± 33 nM on PvPI4K, 43000 nM in data set [1], 90 ± 1 nM in data set [3] and 66000 ± 1000 nM in the data set with β-hematin (βH) formation (setting [5]). This molecule also gave a solubility at 20 h in data set [2] of 195 µM (≈ 72.8 µg/mL).
As to `FC(F)(F)c1ccc(-c2ccc3nccc(N[C@H]4CCNC4)c3n2)cn1` [Compound 15, N-[(3S)-Pyrrolidin-3-yl]-6-[6-(trifluoromethyl)pyridin-3-yl]-1,5-naphthyridin-4-amine], the IC50 came out at 164 ± 69 nM on PvPI4K, 46000 nM in data set [1] and 70 ± 13 nM in data set [3]. Besides, the concentration in solution in data set [2] (solubility at 20 h) came to 200 µM (≈ 71.9 µg/mL).
As for `FC(F)(F)c1ccc(-c2ccc3nccc(OC4CCNCC4)c3n2)cn1` [Compound 19, 8-Piperidin-4-yloxy-2-[6-(trifluoromethyl)pyridin-3-yl]-1,5-naphthyridine], the figures for the IC50 (at PvPI4K; in data set [3]; in the data set with β-hematin (βH) formation (setting [5])) were 265 ± 160 nM, 3850 ± 954 nM and 94000 ± 3000 nM, respectively.
For `CN1CCC(Nc2cc(=O)[nH]c3ccc(-c4ccc(C(F)(F)F)nc4)nc23)CC1` [Compound 37, 4-[(1-Methylpiperidin-4-yl)amino]-6-[6-(trifluoromethyl)pyridin-3-yl]-1H-1,5-naphthyridin-2-one], the IC50 is above 10000 nM on PvPI4K and 4200 ± 1000 nM in data set [3]. Further, in data set [2], the solubility at 20 h was determined as 45 µM (≈ 18.2 µg/mL).
For the molecule `CS(=O)(=O)c1ccc(-c2cnc(N)c(-c3ccc(C(F)(F)F)nc3)c2)cc1` [MMV390048, reference compound], the IC50 was 31 nM in data set [4] (Plasmodium falciparum, 72 h, read-out: ABS IC50 for PfPI4K cKD, N=1, +aTc, experiment N=1, +aTc (500 nM, control conditions), 72 hours); 4 nM in data set [4] (Plasmodium falciparum, 72 h, read-out: ABS IC50 for PfPI4K cKD, N=1, no aTc, experiment N=1, no aTc (PI4K knockdown), 72 hours); 29 nM in data set [4] (Plasmodium falciparum, 72 h, read-out: ABS IC50 for PfPI4K cKD, N=2, +aTc, experiment N=2, +aTc (500 nM, control conditions), 72 hours); 4.31 nM in data set [4] (Plasmodium falciparum, 72 h, read-out: ABS IC50 for PfPI4K cKD, N=2, no aTc, experiment N=2, no aTc (PI4K knockdown), 72 hours); 25 nM in data set [4] (Plasmodium falciparum, 72 h, read-out: ABS IC50 for PfPI4K cKD, N=3, +aTc, experiment N=3, +aTc (500 nM, control conditions), 72 hours); 3.48 nM in data set [4] (Plasmodium falciparum, 72 h, read-out: ABS IC50 for PfPI4K cKD, N=3, no aTc, experiment N=3, no aTc (PI4K knockdown), 72 hours). For the same molecule, the concentration for half-maximal inhibition (IC50) in data set [4] (Plasmodium falciparum, read-out: ABS IC50 for PfPI4K cKD, Mean + SD, +aTc, mean of N=3, +aTc (control conditions)) amounted to 26 ± 3 nM; in data set [4] (Plasmodium falciparum, read-out: ABS IC50 for PfPI4K cKD, Mean + SD, no aTc, mean of N=3, no aTc (PI4K knockdown)), 3.7 ± 0.4 nM; in data set [4] (read-out: ABS IC50 for PfPI4K cKD, N=1, +aTc, experiment N=1, +aTc (500 nM, control conditions), 72 hours), 27 nM; in data set [4] (read-out: ABS IC50 for PfPI4K cKD, N=2, +aTc, experiment N=2, +aTc (500 nM, control conditions), 72 hours) it was 21 nM; in data set [4] (read-out: ABS IC50 for PfPI4K cKD, N=2, no aTc, experiment N=2, no aTc (PI4K knockdown), 72 hours) it was 3.39 nM; in data set [4] (read-out: ABS IC50 for PfPI4K cKD, N=3, +aTc, experiment N=3, +aTc (500 nM, control conditions), 72 hours) it was 23 nM. Further, the IC50 was 3.31 nM in data set [4] (read-out: ABS IC50 for PfPI4K cKD, N=3, no aTc, experiment N=3, no aTc (PI4K knockdown), 72 hours) and 36 nM in data set [3].
